pEC50: −log10 of the molar value. Read-outs that look alike come from different tables or passages of the source. Numbered stars: 1 amine (or outer) side, 2 acyl side, 3 side chain; on linkers, the order of the positions; unused ones are H or OH. Bridge positions count the residues as written; N and C are the ends. Square brackets hold non-standard residues; d marks the D form. Peptide text beside a SMILES is read from it. * marks the point of attachment. C20 diacid = O=C(O)CCCCCCCCCCCCCCCCCCC(=O)*; Pro(4R-NH2) = N[C@H]1CN[C@H](C(=O)O)C1; γGlu = O=C(O)[C@H](CCC(=O)[*:2])N[*:1]; NMeI = CC[C@H](C)[C@H](NC)C(=O)O; Pip = O=C(O)[C@@H]1CCCCN1; Aze = O=C(O)[C@@H]1CCN1; Sar = CNCC(=O)O
Columns and labels:
[1] = molecular target: T1, human calcitonin receptor (hCTR2) (Homo sapiens, UniProt P30988); experiment: hCTR2 assay: induction of cAMP (AlphaScreen cAMP Assay kit) in COS7 cells expressing hCTR2; type: cell-based
T1 construct: expressed in transfected cells
T1 sequence (P30988 25-474): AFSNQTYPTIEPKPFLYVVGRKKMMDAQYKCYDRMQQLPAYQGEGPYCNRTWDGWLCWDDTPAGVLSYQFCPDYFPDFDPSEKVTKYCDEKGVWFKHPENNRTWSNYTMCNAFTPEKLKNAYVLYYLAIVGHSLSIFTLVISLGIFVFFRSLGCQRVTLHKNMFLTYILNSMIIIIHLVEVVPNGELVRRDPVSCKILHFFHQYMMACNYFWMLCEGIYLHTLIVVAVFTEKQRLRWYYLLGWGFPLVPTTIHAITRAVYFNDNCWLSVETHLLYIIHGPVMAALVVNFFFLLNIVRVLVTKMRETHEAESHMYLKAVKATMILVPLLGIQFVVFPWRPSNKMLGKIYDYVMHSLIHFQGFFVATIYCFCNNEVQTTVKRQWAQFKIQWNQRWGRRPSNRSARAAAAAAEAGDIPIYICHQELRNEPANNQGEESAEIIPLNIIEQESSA
Method in brief: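 Cells were seeded one day ahead, washed, then exposed to rising peptide concentrations for 15 min at 37° C in the presence of 100 µM IBMX. After lysis for 10 min at room temperature, cAMP was quantified by AlphaScreen and EC50 values derived by 4PL fitting.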

[2] = molecular target: T2, human amylin receptor 3 (hAMYR3) consisting of hCTR2 co-expressed with human Receptor Activity Modifying Protein 3 (hRAMP3) (Homo sapiens, UniProt O60896+P30988); experiment: hAMYR3 assay: induction of cAMP (AlphaScreen cAMP Assay kit) in COS7 cells expressing hAMYR3; type: cell-based
T2 construct: expressed in transfected cells
T2 sequence (P30988 25-474): T1 sequence (P30988 25-474)
T2 sequence (O60896 24-148 partner): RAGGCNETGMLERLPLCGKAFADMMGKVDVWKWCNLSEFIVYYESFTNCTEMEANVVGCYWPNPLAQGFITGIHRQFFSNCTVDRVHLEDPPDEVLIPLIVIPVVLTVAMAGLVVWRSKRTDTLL
Method in brief: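 cAMP accumulation read by AlphaScreen in lysates of RAMP-naive COS7 cells stably transfected with hCTR2 plus hRAMP3. Cells exposed to peptide dilutions for 15 min, 37° C, with 100 µM IBMX; 4PL fitting gave EC50 and efficacy relative to pramlintide.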

[3] = Solubility assessment (turbidity absorbance at 325 nm); type: physicochemical; conditions: stock 2 mg/ml diluted 1:1, ambient temperature (typically 25°C), n=1; for Solubility, Acetate buffer pH 4: 100 mM acetate buffer pH 4.0; for Solubility, Acetate buffer pH 5: 100 mM acetate buffer pH 5.0; for Solubility, Histidine buffer pH 6: 100 mM histidine buffer pH 6.0; for Solubility, Histidine buffer pH 7: 100 mM histidine buffer pH 7.0; for Solubility, Phosphate buffer pH 6: 100 mM phosphate buffer pH 6.0; for Solubility, Phosphate buffer pH 7: 100 mM phosphate buffer pH 7.0; for Solubility, Phosphate buffer pH 7.5: 100 mM phosphate buffer pH7.5
Method in brief: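 Turbidity read as absorbance at 325 nm (also 280 nm), single samples at ambient temperature (typically 25°C); ≤ 0.02 units counts as ≥ 1 mg/ml soluble. Samples made by 1:1 dilution of a 2 mg/ml acidic stock into 100 mM acetate, histidine or phosphate buffers, pH 4.0–7.5.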

[4] = cAMP induction in COS7 cells expressing hCTR2, average of a minimum of 3 determinations, read-out: hCTR2 EC50
[5] = cAMP induction in COS7 cells expressing hAMYR3, average of a minimum of 3 determinations, read-out: hAMY R3 EC50

Structure (SMILES) | pEC50 [1, 4] | pEC50 [2, 5] | Solubility, Acetate buffer pH 4 [3] | Solubility, Acetate buffer pH 5 [3] | Solubility, Histidine buffer pH 6 [3] | Solubility, Histidine buffer pH 7 [3] | Solubility, Phosphate buffer pH 6 [3] | Solubility, Phosphate buffer pH 7 [3] | Solubility, Phosphate buffer pH 7.5 [3] | pEC50 [1] | pEC50 [2]
CC[C@H](C)[C@@H](C(=O)N[C@@H](CC(C)C)C(=O)N[C@@H](CO)C(=O)N[C@@H](CO)C(=O)N[C@H](C(=O)N[C@@H](CC(N)=O)C(=O)N[C@H](C(=O)NCC(=O)N[C@@H](CO)C(=O)N[C@@H](CC(N)=O)C(=O)N[C@H](C(=O)N1CC[C@H]1C(N)=O)[C@@H](C)O)C(C)C)[C@@H](C)O)N(C)C(=O)CN(C)C(=O)[C@H](Cc1ccccc1)NC(=O)[C@H](CC(N)=O)NC(=O)[C@H](CC(N)=O)NC(=O)[C@H](CO)NC(=O)[C@H](CO)NC(=O)[C@H](CCCNC(=N)N)NC(=O)[C@H](Cc1c[nH]cn1)NC(=O)[C@H](CC(C)C)NC(=O)[C@H](Cc1ccccc1)NC(=O)[C@H](CCC(=O)O)NC(=O)[C@H](C)NC(=O)[C@H](CC(C)C)NC(=O)[C@H](CCCNC(=N)N)NC(=O)[C@H](CCC(N)=O)NC(=O)[C@@H](NC(=O)[C@H](C)NC(=O)[C@@H]1CSSC[C@H](NC(=O)[C@H](CCCNC(=N)N)NC(=O)CC[C@H](NC(=O)CCCCCCCCCCCCCCCCCCC(=O)O)C(=O)O)C(=O)N[C@@H](CC(N)=O)C(=O)N[C@@H]([C@@H](C)O)C(=O)N[C@@H](C)C(=O)N[C@@H]([C@@H](C)O)C(=O)N1)[C@@H](C)O [Compound 108, [19CD]-isoGlu-RC()NTATC()ATQRLAEFLHRSSNNF-Gly(Me)-Ile(Me)-LSSTNVGSNT-Aze-NH2] ({C20 diacid-γGlu}-RCNTATCATQRLAEFLHRSSNNF[Sar][NMeI]LSSTNVGSNT[Aze]-NH2; disulfide 2-7) | 9.49 | 9.17 | SS (SS indicates solubility ≥ 1mg/ml) | SS (SS indicates solubility ≥ 1mg/ml) | SS (SS indicates solubility ≥ 1mg/ml) | SS (SS indicates solubility ≥ 1mg/ml) | SS (SS indicates solubility ≥ 1mg/ml) | SS (SS indicates solubility ≥ 1mg/ml) | SS (SS indicates solubility ≥ 1mg/ml) | – | –
CC[C@H](C)[C@@H](C(=O)N[C@@H](CC(C)C)C(=O)N[C@@H](CO)C(=O)N[C@@H](CO)C(=O)N[C@H](C(=O)N[C@@H](CC(N)=O)C(=O)N[C@H](C(=O)NCC(=O)N[C@@H](CO)C(=O)N[C@@H](CC(N)=O)C(=O)N[C@H](C(=O)N1CCCC[C@H]1C(N)=O)[C@@H](C)O)C(C)C)[C@@H](C)O)N(C)C(=O)[C@H](C)NC(=O)CN(C)C(=O)[C@H](Cc1ccccc1)NC(=O)[C@H](CC(N)=O)NC(=O)[C@H](CC(N)=O)NC(=O)[C@H](CO)NC(=O)[C@H](CO)NC(=O)[C@H](CCCNC(=N)N)NC(=O)[C@H](Cc1c[nH]cn1)NC(=O)[C@H](CC(C)C)NC(=O)[C@H](Cc1ccccc1)NC(=O)[C@H](CCC(=O)O)NC(=O)[C@H](C)NC(=O)[C@H](CC(C)C)NC(=O)[C@H](CCCNC(=N)N)NC(=O)[C@H](CCC(N)=O)NC(=O)[C@@H](NC(=O)[C@H](C)NC(=O)[C@@H]1CSSC[C@H](NC(=O)[C@H](CCCNC(=N)N)NC(=O)CC[C@H](NC(=O)CCCCCCCCCCCCCCCCCCC(=O)O)C(=O)O)C(=O)N[C@@H](CC(N)=O)C(=O)N[C@@H]([C@@H](C)O)C(=O)N[C@@H](C)C(=O)N[C@@H]([C@@H](C)O)C(=O)N1)[C@@H](C)O [Compound 109, [19CD]-isoGlu-RC()NTATC()ATQRLAEFLHRSSNNF-Gly(Me)-A-Ile(Me)-LSSTNVGSNT-Pip-NH2] ({C20 diacid-γGlu}-RCNTATCATQRLAEFLHRSSNNF[Sar]A[NMeI]LSSTNVGSNT[Pip]-NH2; disulfide 2-7) | – | – | SS (SS indicates solubility ≥ 1mg/ml) | SS (SS indicates solubility ≥ 1mg/ml) | SS (SS indicates solubility ≥ 1mg/ml) | SS (SS indicates solubility ≥ 1mg/ml) | II (II indicates solubility ≤ 1 mg/ml) | SS (SS indicates solubility ≥ 1mg/ml) | SS (SS indicates solubility ≥ 1mg/ml) | 9.52 | 9.28
CC[C@H](C)[C@@H](C(=O)N[C@@H](CC(C)C)C(=O)N[C@@H](CO)C(=O)N[C@@H](CO)C(=O)N[C@H](C(=O)N[C@@H](CC(N)=O)C(=O)N[C@H](C(=O)NCC(=O)N[C@@H](CO)C(=O)N[C@@H](CC(N)=O)C(=O)N[C@H](C(=O)N1C[C@H](N)C[C@H]1C(N)=O)[C@@H](C)O)C(C)C)[C@@H](C)O)N(C)C(=O)CN(C)C(=O)[C@H](Cc1ccccc1)NC(=O)[C@H](CC(N)=O)NC(=O)[C@H](CC(N)=O)NC(=O)[C@H](CO)NC(=O)[C@H](CO)NC(=O)[C@H](CCCNC(=N)N)NC(=O)[C@H](Cc1c[nH]cn1)NC(=O)[C@H](CC(C)C)NC(=O)[C@H](Cc1ccccc1)NC(=O)[C@H](CCC(=O)O)NC(=O)[C@H](C)NC(=O)[C@H](CC(C)C)NC(=O)[C@H](CCCNC(=N)N)NC(=O)[C@H](CCC(N)=O)NC(=O)[C@@H](NC(=O)[C@H](C)NC(=O)[C@@H]1CSSC[C@H](NC(=O)[C@H](CCCNC(=N)N)NC(=O)CC[C@H](NC(=O)CCCCCCCCCCCCCCCCCCC(=O)O)C(=O)O)C(=O)N[C@@H](CC(N)=O)C(=O)N[C@@H]([C@@H](C)O)C(=O)N[C@@H](C)C(=O)N[C@@H]([C@@H](C)O)C(=O)N1)[C@@H](C)O [Compound 111, [19CD]-isoGlu-RC()NTATC()ATQRLAEFLHRSSNNF-Gly(Me)-Ile(Me)-LSSTNVGSNT-Apr-NH2] ({C20 diacid-γGlu}-RCNTATCATQRLAEFLHRSSNNF[Sar][NMeI]LSSTNVGSNT[Pro(4R-NH2)]-NH2; disulfide 2-7) | 9.85 | 9.68 | SS (SS indicates solubility ≥ 1mg/ml) | SS (SS indicates solubility ≥ 1mg/ml) | SS (SS indicates solubility ≥ 1mg/ml) | SS (SS indicates solubility ≥ 1mg/ml) | SS (SS indicates solubility ≥ 1mg/ml) | SS (SS indicates solubility ≥ 1mg/ml) | SS (SS indicates solubility ≥ 1mg/ml) | – | –

— patent publication EP3046573B1, “AMYLIN ANALOGUES” (Zealand Pharma A/S, priority 2013, dated 2015)
